# Laboratory results from article PMC7069228, “Targeted cell imaging properties of a deep red luminescent iridium(III) complex conjugated with a c-Myc signal peptide” (Chemical Science, 2020).
# “Also recorded” adds a separate entry of the source.
# Assays:
# [1] = test system: human fibroblast cells; assay: Immunocytochemistry with cell membrane permeabilisation (retention of red emission); assay type: cell-based; details: fluorescence microscopy imaging
# From the text: To investigate whether the NLS was cleaved off Ir-CMYC prior to translocation to the nucleus, an immunoassay was trialled using an antibody raised against c-Myc.
# [2] = Longer term stability in water by UV-vis absorption spectra; assay type: physicochemical
# Protocol: Our previous studies on Ir(III) complexes have shown that the use of substituted, cyclometalated quinoxaline ligands can impart red luminescence characteristics.[25] Firstly, the UV-vis absorption and emission spectral characteristics of Ir-PYR were determined. […] By inference, ligand-centred transitions are assumed to dominate below 350 nm, with both quinoxaline and bipyridine located π → π* contributing to the spectrum. At 350–450 nm it is likely that spin-allowed metal-to-ligand (5d-to-π*) charge transfers (^1MLCT) are present, with a weaker (ε < 1000 M^–1 cm^–1) shoulder feature at 450–600 nm, which is presumably due to a spin forbidden (S0 → T1) ^3MLCT absorption. […] To assess longer term stability in water, UV-vis absorption spectra of an aqueous solution (stored at 25 °C in light) of Ir-CMYC were recorded at 0, 24, 48 and 72 h (Fig. S4, ESI ^†).
# [3] = test system: human fibroblast cells; assay: Confocal fluorescence microscopy: cell uptake and localisation; assay type: cell-based; details: human fibroblasts
# Protocol: The non-peptide functionalised complex Ir-PYR was investigated at a range of concentrations (1, 5, 20, 50, 80, 100 μM) with respect to cell uptake, localization and bioimaging capability. Human fibroblast cells were incubated with the different concentration solutions of Ir-PYR and imaged after 18 hours using confocal fluorescence microscopy. With long wavelength excitation and emission parameters (λex = 480 nm; λem = 645 nm) compatible with the spectral properties of the complex, it was clearly evident (Fig. 2) that the deep red emission of Ir-PYR was highly amenable to confocal fluorescence microscopy.
# Human derived skin fibroblast cells lines were obtained from the Coriell Cell Repository (GM05399, Camden, NJ). Cells were cultured as monolayers in Dulbecco's modified Eagles medium (DMEM, Sigma, UK) supplemented with 10% fetal bovine serum (FBS, PAN-Biotech, Aidenbach, Germany) and 1% L-glutamine in a humidified incubator with 5% CO2 at 37 °C. For all imaging experiments low passage cells (P10-15) were seeded in 8-well chamber slides (Thistle, IB-80826) at a density of 15 000 cells in 250 μL of media.
# Stock solutions were diluted to the stated concentrations in cell culture medium for incubation with fibroblasts. The equivalent amount of DMSO (<0.5% total volume) was added to controls for comparison. For nuclear visualisation cells were counterstained for 10 minutes with Hoechst 33342 diluted in cell culture media (1 μL mL^–1, Thermo Fisher, UK). For non-live imaging, cells were fixed in cold 4% paraformaldehyde for 10 min at room temperature and rinsed with PBS. For live-cell colocalization studies, cells were incubated with Ir-PYR for 12 hours prior to counterstaining with Hoechst 33342, and either LysoTracker-green DND-26 (L7528, Thermo Fisher, UK), or CYTO-ID Autophagy detection kit 2.0 (175–0050, Enzo Life Sciences, UK), as per the manufacturer's instructions. Briefly, LysoTracker was diluted in cell culture media to a final concentration of 200 nM and left for 15 min at 37 °C. […]
# [4] = test system: Human fibroblasts; assay: Resazurin cell viability / metabolic activity assay; assay type: cell-based
# Protocol: Fig. 3 Ir-PYR is cytotoxic at 20 μM and above. Human fibroblasts were incubated with various concentrations (0 or DMSO only, 5, 20, 50, 80, 100 μM) of either Ir-CMYC (A) or Ir-PYR (B) for 18 hours. Resazurin was added to cells, and after a 4 hour incubation the relative fluorescence intensity was measured (λex = 530 nm; λem = 580 nm). Ir-PYR treated cells (>20 μM) show reduced conversion of resazurin to the fluorescent resorufin indicating reduced cell viability.
# Human derived skin fibroblast cells lines were obtained from the Coriell Cell Repository (GM05399, Camden, NJ). […]
# Human fibroblasts were plated at 10 000 cells per well of a 96-well plate (Cellbind) and treated with the indicated concentrations of Ir-PYR, Ir-CMYC or DMSO. […] After a 4 hour incubation at 37 °C, fluorescence was determined using a Molecular Devices Spectramax Gemini EM plate reader (λex = […]; λem = 585 nm).
# Human fibroblasts were plated at 10 000 cells per well of a 96-well plate and treated with the various concentrations of Ir-PYR, Ir-CMYC (5, 20, 80, 50, 100 μM) or the highest volume of equivalent of DMSO only. […] After a 4 hour incubation at 37 °C, fluorescence was determined using a Molecular Devices Spectramax Gemini EM plate reader (λex = 530 nm; λem = 580 nm).
# [5] = test system: fish sperm DNA; assay: Circular dichroism / UV-vis titration with fish sperm DNA (multiple independent binding sites model); details: Table S1; buffer 25 mM MOPS, 50 mM NaCl, 1 mM EDTA, 25 °C; n restricted to 3 base pairs
# Protocol: In view of the nuclear localisation of Ir-CMYC, we also considered the potential role that affinity to DNA may play. To explore DNA binding of these Ir(III) complexes, UV-vis and circular dichroism titrations were carried out in buffer (25 mM MOPS, 50 mM NaCl, 1 mM EDTA) at 25 °C (Fig. S6, ESI ^†). To quantify the affinity of Ir-PYR for fish sperm DNA, titration curves at 400 and 493 nm were extracted from the circular dichroism data (Fig. 6). Similarly, for Ir-CMYC, titration curves at 373 and 493 nm were extracted from the circular dichroism data. The binding data were analysed globally (Table S1 ^†) in terms of the multiple independent binding sites model, explicitly taking into account the dilution of the iridium complex during the titration.[28] […]
# MOPS buffer was prepared by dissolving MOPS (3-(N-morpholino)propanesulfonic acid, CAS[1132-61-2]), NaCl, and EDTA (ethylenediaminetetraacetic acid disodium salt dihydrate, CAS[6381-92-6]) (all obtained from Fisher and used as supplied) in deionised water (Elga Purelab Flex), adjusting the pH to 7.0 using a NaOH solution (pH of the buffer was determined using a Hanna Instruments pH210 microprocessor pH meter with a VWR simple junction universal combined pH/reference electrode) and making up the solution to 0.5 litre. […]
# [6] = Freeze-thaw stability of DMSO stock solutions; assay type: physicochemical; details: 10 mM stock in DMSO stored at –20 °C
sequence,measurement,setting,value
"PAAKRVKLD [Ir-CMYC, NLS peptide … functionalised at N-terminus with cyclometalated iridium(III) quinoxaline/bipyridine complex]",red emission in cells after immunocytochemistry procedure which permeabilises the cell membrane,[1],no longer evident
same,"UV-vis absorption spectra at 0, 24, 48 and 72 h (chemical stability in water)","[2]; aqueous solution stored at 25 °C in light, read-out UV-vis absorption",superimposable
same,solubility in water,"[2]; inferred from superimposable UV-vis spectra of aqueous solution over 72 h, 25 °C",excellent solubility
same,uptake / staining at 1–5 μM,"[3]; 1–5 μM, 18 h, confocal microscopy",No uptake or staining
same,concentration giving good cell uptake and nuclear localisation,"[3]; 18–24 h incubation, confocal, co-localisation with Hoechst 33342, n = 2",80 to 100 µM
same,staining at 20–50 μM,"[3]; 20–50 μM, 18 h, confocal microscopy",weak punctate staining
same,cytotoxicity,"[4]; 5–100 μM, 18 h incubation, resazurin",No cytotoxicity was observed; also recorded: essentially non-toxic
same,toxicity: changes in cellular morphology or mitochondrial activity,"[4]; 24 hours after incubation, resazurin cell death assay",no (or minimal) toxicity
same,"K (fitted equilibrium constant, binding to FS DNA)",[5],4.5 ± 1.0 103 M-1
same,effect of 3 freeze–thaw cycles on compound signal,[6],did not appear to reduce the compound signal
